Where two headings read alike, the source gives them in different places.
Legend:
E. coli (ATCC 35150) = assay type: cell-based; details: 60 minutes
Protocol: (§1) Medium contained 10 mM HEPES buffer at pH 7. […] Colonies were counted after 20 hours.

S. aureus (ATCC 29213) [1] = assay type: cell-based
Protocol: as §1

[2] = pKa by potentiometric titration; assay type: physicochemical; details: aqueous solution, ionic strength 0.10, 25° C.
Protocol: PKa's were determined by standard potentiometric titration methods in aqueous solution with an ionic strength of 0.10 at 25° C. Values are reported as log K values of the equilibrium constant.

[3] = tested on: E. coli (GM 7359) alkA tag E. coli mutant; details: 60 minutes
Protocol: (§2) Bacteria were inoculated and cultured in nutrient agar for eighteen hours, using a shaking incubator at 140 r.p.m and 35° C. Medium contained 10 mM HEPES buffer at pH 7. Cells were centrifuged twice in Sorval RC-5 centrifuge 12,000 r.pm.×15 minutes at 4° C. and washed twice in 10 uM HEPES buffer. The resuspended cells were counted using a Hemocrit and diluted to a level of 5×10^1 cells per ml in 10 μM HEPES. The cells, the following toxins; methyl viologen (paraquat), methyl viologen (MPP^+), rotenone, daizoxide, streptozotocin and alloxan, and antidotes were added, reaching final volumes of 1 ml in Eppendorf tubes and placed on a rotator at room temperature. 10 μM diethylenetriaminepentaacetic acid was added to the samples to terminate the reactions at the specified times of either twenty or sixty minutes. 300 μL of cells were plated on Petri plates containing nutrient agar and incubated at 35° C. overnight. Colonies were counted after 20 hours. Percentage survival as compared with culture controls is calculated from the means of triplicates in each experimental group.

[4] = cited from earlier work
[5] = Oil water partition coefficients (octanol/water, HPLC); assay type: physicochemical; details: for lipid water partitioning, in words: passage through gastrointestinal barrier and blood brain barrier
Protocol: Partition coefficients were determined by dissolving the compound in a 1:1 mixture of octanol/water and shaking the solution for 12 hours. HPLC was used to determine the partition coefficient. The reported values are the log of the octanol/water partition

[6] = tested on: MPTP induced dopamine loss; details: previously reported; cited from earlier work
S. aureus (ATCC 29213) [7] = assay: Bacterial survival, toxin diazoxide and antidotes; assay type: cell-based; details: 60 minutes
Protocol: as §1

[8] = tested on: E. coli (GM 7359) alkA tag E. coli mutant; details: 60 minutes; remark: listed apart in the source
Protocol: as §2

M. Luteus (ATCC 499732) = assay: Bacterial survival, toxin diazoxide and antidotes
Protocol: as §2

[9] = tested on: E. coli (GM 7359) alkA tag E. coli mutant; assay: Bacterial survival, toxin streptozotocin and antidotes; details: 60 minutes
Protocol: as §2

[10] = 1:1 octanol/water, shaken 12 hours, HPLC
[11] = 0.15 mM Diazoxide + 2.5 uM antidote
[12] = 0.15 mM Diazoxide + 5 uM antidote

Structure (SMILES): C[n+]1ccc(-c2cc[n+](C)cc2)cc1 [Paraquat]
- Mean % Survival (E. coli (ATCC 35150); substance alone 0.5 mM): 16%
- Mean % Survival (E. coli (ATCC 35150); substance alone 1 mM): 10%
- Mean % Survival (S. aureus (ATCC 29213) [1]; substance alone 0.5 mM, 60 minutes): 39%

Structure (SMILES): NCCNCCNCCN [2,2,2-tetramine, reference compound]
- pKa(1) [2]: 9.7
- pKa(2) [2]: 9.1
- pKa(3) [2]: 6.6
- pKa(4) [2]: 3.3
- Mean % Survival ([3]; 100 mM Rotenone + 0.5 mM antidote): 67%
- Mean % Survival ([3]; 100 mM Rotenone + 2 mM antidote): 100%
- Mean % Survival ([3]; substance alone 2 mM): 100%
- half life in vivo [4]: only a few hours
- metabolism and excretion, in words ([4]; in vivo): rapidly metabolized to acetyl 2,2,2-tetramine and rapidly excreted
- Log Partition Coefficient Octanol:Water [5, 10]: 1.6
- lipid water partitioning, in words [5]: optimal lipid water partitioning

Structure (SMILES): NCCNCCCNCCN [2,3,2-tetramine, 1,3-bis-[(2′-aminoethyl)-amino]propane]
- pKa(1) [2]: 10.3
- pKa(2) [2]: 9.5
- pKa(3) [2]: 7.3
- pKa(4) [2]: 6.0
- prevention of MPTP induced dopamine loss, in words [6]: prevent MPTP induced dopamine loss
- Mean % Survival (S. aureus (ATCC 29213) [7]; [11]): 65%
- Mean % Survival (S. aureus (ATCC 29213) [7]; [12]): 78%
- Mean % Survival (S. aureus (ATCC 29213) [7]; 0.15 mM Diazoxide + 10 uM antidote): 78%
- Mean % Survival (S. aureus (ATCC 29213) [7]; 0.15 mM Diazoxide + 20 uM antidote): 75%
- Mean % Survival (S. aureus (ATCC 29213) [7]; substance alone 20 uM): 99%
- Mean % Survival (E. coli (ATCC 35150); 1.0 mM Paraquat + 1.0 mM antidote): 100%
- Mean % Survival (E. coli (ATCC 35150); substance alone 1 mM): 100%
- Mean % Survival (S. aureus (ATCC 29213) [1]): 78%
- Mean % Survival (S. aureus (ATCC 29213) [1]; 0.5 mM Paraquat + 1 mM antidote, 60 minutes): 80%
- Mean % Survival (S. aureus (ATCC 29213) [1]; substance alone 1 mM, 60 minutes): 100%
- Log Partition Coefficient Octanol:Water [5, 10]: 2.1
- lipid water partitioning, in words [5]: optimal lipid water partitioning

Structure (SMILES): c1ccc(CNCCCNCc2ccccn2)nc1 [2,3,2-pyridine, (2-pyridylmethyl){3-[(2-pyridylmethyl)amino]propyl}amine]
- pKa ([2]; read-out: pKa(1)): 8.3
- pKa ([2]; read-out: pKa(2)): 7.4
- Mean % Survival ([8]; 2 mM Alloxan + 10 uM antidote): 100%
- Mean % Survival ([8]; substance alone 10 uM): 100%
- Mean % Survival ([3]; 100 uM Rotenone + 2.5 uM antidote): 100%
- Mean % Survival ([3]; 100 uM Rotenone + 5 uM antidote): 100%
- Mean % Survival ([3]; 100 uM Rotenone + 20 uM antidote): 100%
- Mean % Survival ([3]; 100 uM Rotenone + 50 uM antidote): 100%
- Mean % Survival ([3]; substance alone 50 uM): 100%
- Mean % Survival (M. Luteus (ATCC 499732); 0.2 mM Diazoxide + 2.5 uM antidote, T20): 96%
- Mean % Survival (M. Luteus (ATCC 499732); 0.2 mM Diazoxide + 2.5 uM antidote, T60): 99%
- Mean % Survival (M. Luteus (ATCC 499732); 0.2 mM Diazoxide + 5 uM antidote, T20): 93%
- Mean % Survival (M. Luteus (ATCC 499732); 0.2 mM Diazoxide + 5 uM antidote, T60): 100%
- Mean % Survival (M. Luteus (ATCC 499732); 0.2 mM Diazoxide + 10 uM antidote, T20): 100%
- Mean % Survival (M. Luteus (ATCC 499732); 0.2 mM Diazoxide + 10 uM antidote, T60): 100%
- Mean % Survival (M. Luteus (ATCC 499732); 0.2 mM Diazoxide + 20 uM antidote, T20): 100%
- Mean % Survival (M. Luteus (ATCC 499732); 0.2 mM Diazoxide + 20 uM antidote, T60): 100%
- Mean % Survival (M. Luteus (ATCC 499732); 0.2 mM Diazoxide + 40 uM antidote, T20): 100%
- Mean % Survival (M. Luteus (ATCC 499732); 0.2 mM Diazoxide + 40 uM antidote, T60): 70%
- Mean % Survival (M. Luteus (ATCC 499732); substance alone 40 uM, T20 (20 minutes)): 100%
- Mean % Survival (M. Luteus (ATCC 499732); substance alone 40 uM, T60 (60 minutes)): 100%
- Mean % Survival ([9]; 100 uM Streptozotocin + 2.5 uM antidote): 100%
- Mean % Survival ([9]; 100 uM Streptozotocin + 5 uM antidote): 100%
- Mean % Survival ([9]; 100 uM Streptozotocin + 20 uM antidote): 100%
- Mean % Survival ([9]; substance alone 20 uM): 100%
- Mean % Survival (S. aureus (ATCC 29213) [7]; [11]): 61%
- Mean % Survival (S. aureus (ATCC 29213) [7]; [12]): 84%
- Mean % Survival (S. aureus (ATCC 29213) [7]; substance alone 5 uM): 99%
- logP at 12 h ([5]; octanol/water (1:1), 1:1 octanol/water, shaken 12 hours, HPLC, read-out: Log Partition Coefficient Octanol:Water): 2.7
- lipid water partitioning, in words [5]: optimal lipid water partitioning

From patent US20140057877A1, “Therapeutic polyamine compositions and their synthesis” (priority 2002, published 2014)
